Source: the supplement of paper PMC10307832

What was measured:
Test in all cases: relative viability (nuclei count vs DMSO), 5 days (fraction); higher = more cells survive
[1] = compound: CC(C)S(=O)(=O)C1=CC=CC=C1NC2=NC(=NC(=C2Cl)N)NC3=C(C=C(C=C3)N4CCC(CC4)C(=O)N)OC [HG-5-88-01]
Procedure, shortened: (§1)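 Only plates meeting two conditions passed: control CV below 25% and at least one doubling. Lung cancer cell lines, kept overnight at 37 °C in 1536-well plates, were pinned with five library-drug doses (not always all listed) √10 apart on vehicle-anchored plates and grown 5 days without medium change. A one-step fix, permeabilisation and Hoechst stain preceded 4× imaging and MetaXpress nuclear counting. Viability equals treated-well nuclei divided by vehicle-well nuclei, as the median over plates.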

[2] = compound: C[C@@H]1CN(CC(=O)Nc2ccc3c(c2)Cc2cccc(-c4cc(=O)cc(N5CCOCC5)o4)c2S3)C[C@H](C)O1
Procedure, shortened: as §1

[3] = compound: CCCCCCCCCCCC1=C(O)C(=O)C=C(O)C1=O [Embelin]
Procedure, shortened: as §1

[4] = compound: CC(C)Oc1cc(Nc2nc(N[C@@H](C)c3ccc(F)cn3)ncc2Cl)n[nH]1 [AZ23]
Procedure, shortened: as §1

[5] = compound: Clc1ccc(Nc2nnc(Cc3ccncc3)c3ccccc23)cc1 [Vatalanib]
Procedure, shortened: as §1

Cell Line	relative viability ([1]; 0.04 µM)	relative viability ([1]; 0.1265 µM)	relative viability ([1]; 0.4 µM)	relative viability ([1]; 1.265 µM)	relative viability ([1]; 4 µM)	relative viability ([2]; 0.04 µM)	relative viability ([2]; 0.1265 µM)	relative viability ([2]; 0.4 µM)	relative viability ([2]; 4 µM)	relative viability ([3]; 0.08 µM)	relative viability ([3]; 0.8 µM)	relative viability ([3]; 2.53 µM)	relative viability ([3]; 8 µM)	relative viability ([4]; 0.01 µM)	relative viability ([4]; 0.03162 µM)	relative viability ([4]; 0.3162 µM)	relative viability ([5]; 0.04 µM)	relative viability ([5]; 0.1265 µM)	relative viability ([5]; 0.4 µM)	relative viability ([5]; 1.265 µM)	relative viability ([5]; 4 µM)
HCC-15	1.07	1.02	0.901	1	0.743	1.09	0.898	0.97	0.903	1.01	1.09	1.01	0.964	1.21	1.02	1.07	1.07	1.04	1.06	0.983	1.08
HCC-44	1.04	0.972	0.914	0.927	0.567	0.934	0.976	0.919	0.923	0.886	1.01	1.01	0.869	0.999	1.06	1.01	0.951	0.905	0.943	0.963	0.97
HCC-78	0.836	0.736	0.476	0.378	0.417	0.883	0.922	0.821	0.923	1.02	1.02	0.977	1.07	0.837	1.01	0.589	0.95	0.862	0.972	0.82	0.835
HCC-366	0.998	1.01	0.987	0.987	1.05	1.01	0.987	1.08	0.925	1.01	1.03	1.09	1.06	1.04	1.03	1.03	1.01	0.881	1.01	0.975	0.978
HCC-827	1.06	1.05	1.06	1.03	0.615	1.05	1.04	1.08	1.07	1.03	1.11	1.09	1.09	1.06	1.13	1.08	1.02	0.949	0.924	1.04	0.996
HOP-62	1.03	1.06	0.92	1.02	1.02	0.978	0.991	0.973	0.988	1.02	1.07	1.1	0.984	1.13	1.11	1.12	0.954	0.957	1.07	0.949	1.01
IA-LM	0.959	0.984	0.85	0.715	0.704	0.911	0.938	0.946	0.574	0.932	0.981	1	0.689	0.91	1.12	1.07	0.977	0.898	0.955	0.909	0.898
LC-2-ad	1.08	0.998	1.01	0.948	0.802	1.07	0.969	0.993	0.903	0.986	1.14	1.09	0.95	1.17	1.04	1.02	1.02	0.861	0.793	0.963	0.948
